Source: PubChem BioAssay (NCI)
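A five-concentration, 48-hour dose response in 96-well plates underlies each endpoint, interpolated linearly between surrounding concentrations. The concentration for full growth arrest is given as TGI.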

What was measured:
Assay in all cases: inhibition of tumour cell growth, NCI panel, 48 h
SK-MEL-5 melanoma = tested on: SK-MEL-5 melanoma
SNB-78 CNS = tested on: SNB-78 CNS
LXFL 529 NSCLC = tested on: LXFL 529 NSCLC
DLD-1 colon = tested on: DLD-1 colon
HOP-18 NSCLC = tested on: HOP-18 NSCLC
RXF-631 renal = tested on: RXF-631 renal
XF 498 CNS = tested on: XF 498 CNS
KM20L2 colon = tested on: KM20L2 colon
DMS 114 small cell lung = tested on: DMS 114 small cell lung
M19-MEL melanoma = tested on: M19-MEL melanoma
DMS 273 small cell lung = tested on: DMS 273 small cell lung

Compound Oc1ccccc1C(c1cc2c(cc1O)OCO2)N1CCOCC1 (stereo not drawn) has a TGI (SK-MEL-5 melanoma) of 31.7 µM.

Work on CCOC(=O)C1=C(C)N(c2ccccc2)C2=C(C(=O)N(c3ccccc3)C2c2ccccc2)C1c1ccccc1 (stereo not drawn) yielded a TGI (SK-MEL-5 melanoma) of over 100 µM, a TGI (SNB-78 CNS) of over 100 µM and a TGI (LXFL 529 NSCLC) of over 100 µM. For the same compound, the TGI (DLD-1 colon) was over 100 µM, the TGI (HOP-18 NSCLC) was over 100 µM and the TGI (RXF-631 renal) was over 100 µM. It also gave a TGI (XF 498 CNS) of over 100 µM, a TGI (KM20L2 colon) of over 100 µM and a TGI (DMS 114 small cell lung) of over 100 µM. The TGI (M19-MEL melanoma) was over 100 µM and the TGI (DMS 273 small cell lung) was over 100 µM.

CCOC(=O)c1cc2c([N+](=O)[O-])c(NC(C)=O)ccc2s1 showed a TGI (SK-MEL-5 melanoma) of over 100 µM.

Work on C[C@]12OC[C@H](c3ccccc3)N1C(=O)C1[C@H]2CC12SCCS2 (stereo partly drawn) yielded a TGI (SK-MEL-5 melanoma) of over 100 µM.

COc1ccc(/C(=C/n2ccnc2)C(=O)c2ccc(OC)c(OC)c2)cc1 showed a TGI (SK-MEL-5 melanoma) of over 100 µM, a TGI (LXFL 529 NSCLC) of over 100 µM and a TGI (DLD-1 colon) of over 100 µM. The TGI (XF 498 CNS) was over 100 µM, the TGI (KM20L2 colon) was over 100 µM and the TGI (DMS 114 small cell lung) was over 100 µM. It also gave a TGI (M19-MEL melanoma) of over 100 µM and a TGI (DMS 273 small cell lung) of over 100 µM.

For CC(C)C(Sc1nc(-c2ccccc2)c(-c2ccccc2)[nH]1)C(=O)NNC(=S)Nc1ccccc1 (stereo not drawn), the TGI (SK-MEL-5 melanoma) was 25.4 µM, the TGI (SNB-78 CNS) was 79.6 µM and the TGI (LXFL 529 NSCLC) was 33.8 µM. It also gave a TGI (DLD-1 colon) of 52 µM, a TGI (XF 498 CNS) of 32.7 µM and a TGI (KM20L2 colon) of 37.6 µM. The TGI (M19-MEL melanoma) was 33.4 µM and the TGI (DMS 273 small cell lung) was 34.8 µM.

Compound CC(=O)OCC1OC(N2C(=O)/C(=C\c3ccc(Cl)cc3)C(N)=Nc3ccccc32)C(OC(C)=O)C(OC(C)=O)C1OC(C)=O (stereo not drawn) has a TGI (SK-MEL-5 melanoma) of 27.1 µM.

Cc1ccc2c(c1)nc(N)n[n+]2[O-] gave a TGI (SK-MEL-5 melanoma) of over 100 µM.

In the case of C=CCN(CC=C)Cn1c(=S)sc2ccccc21, the TGI (SK-MEL-5 melanoma) is reported as over 100 µM.

Cc1c(/C=N\NC(=S)N2CCN(C(=S)N/N=C\c3c(C)n(C)n(-c4ccccc4)c3=O)CC2)c(=O)n(-c2ccccc2)n1C gave a TGI (SK-MEL-5 melanoma) of over 100 µM.

With CC(C)(C)C(=O)C(CC(=O)c1ccccc1)C(=O)C(C)(C)C the TGI (SK-MEL-5 melanoma) was over 100 µM.

For O=C1NC(c2ccc(O)cc2)C2CCC1C2 (stereo not drawn), the TGI (SK-MEL-5 melanoma) was over 100 µM, the TGI (SNB-78 CNS) was over 100 µM and the TGI (LXFL 529 NSCLC) was over 100 µM. It also gave a TGI (DLD-1 colon) of over 100 µM, a TGI (XF 498 CNS) of over 100 µM and a TGI (KM20L2 colon) of over 100 µM. For the same compound, the TGI (DMS 114 small cell lung) was over 100 µM and the TGI (M19-MEL melanoma) was over 100 µM.

Cc1ccc(N=Nc2c3c(c(O)c4ccccc24)CCC(C)(C)O3)cc1 gave a TGI (SK-MEL-5 melanoma) of 15.7 µM.

For COc1ncc(C=C(C#N)C#N)c(OC)n1, the TGI (SK-MEL-5 melanoma) was over 100 µM.

For CC(C)CC(N)C(=O)OCN1C(=O)C2C3C=CC(C2C1=O)C1C2C(=O)N(COC(=O)C(N)CC(C)C)C(=O)C2C31 (stereo not drawn), the TGI (SK-MEL-5 melanoma) was over 100 µM, the TGI (SNB-78 CNS) was over 100 µM and the TGI (LXFL 529 NSCLC) was over 100 µM. It also gave a TGI (DLD-1 colon) of over 100 µM, a TGI (HOP-18 NSCLC) of over 100 µM and a TGI (RXF-631 renal) of over 100 µM. The TGI (KM20L2 colon) was over 100 µM, the TGI (DMS 114 small cell lung) was over 100 µM and the TGI (DMS 273 small cell lung) was over 100 µM.

Compound CCOC(=O)c1sc2nc(SC)nc3c2c1N=CN3c1ccc(Br)cc1 has a TGI (SK-MEL-5 melanoma) of over 100 µM.

For O=c1oc2ccccc2c(O)c1C(c1cc(OCc2ccccc2)cc(OCc2ccccc2)c1)c1c(O)c2ccccc2oc1=O, the TGI (SK-MEL-5 melanoma) was 21.2 µM.

In the case of C/C(=N\NC(=S)NC(C)C)c1nc2ncccc2[nH]1, the TGI (SK-MEL-5 melanoma) is reported as over 100 µM.

For CCN(CC)CCn1c2cc3c(cc2c(=O)c2cccnc21)OCCO3, the TGI (SK-MEL-5 melanoma) was over 10 µM.

CO[C@@H](C(=O)OC1C=CC2(CC1)C(=O)N(C)c1ccccc12)c1ccccc1 (stereo partly drawn) was tested, and the TGI (SK-MEL-5 melanoma) was over 100 µM.

With Cc1c(Cl)cccc1NC(=O)C(=O)C1C(=O)CC(C)(C)CC1=O the TGI (SK-MEL-5 melanoma) was over 100 µM, the TGI (SNB-78 CNS) was over 100 µM and the TGI (LXFL 529 NSCLC) was over 100 µM. For the same compound, the TGI (DLD-1 colon) was over 100 µM, the TGI (HOP-18 NSCLC) was over 100 µM and the TGI (RXF-631 renal) was over 100 µM. It also gave a TGI (KM20L2 colon) of over 100 µM, a TGI (DMS 114 small cell lung) of over 100 µM and a TGI (M19-MEL melanoma) of over 100 µM. It also gave a TGI (DMS 273 small cell lung) of over 100 µM.

O=C(O)c1ccc(NC(c2ccccc2)c2ccc3cccnc3c2O)cc1 (stereo not drawn) showed a TGI (SK-MEL-5 melanoma) of 29.8 µM.

In the case of Cc1c(S(=O)(=O)c2ccccc2)c(N)n(Cc2ccccc2)c1C, the TGI (SK-MEL-5 melanoma) is reported as over 100 µM.

Clc1nc(Cl)nc(NC23CC4CC(CC(C4)C2)C3)n1 was tested, and the TGI (SK-MEL-5 melanoma) was 26.6 µM.

For c1cc2nnc1SCCSCCSc1ccc(nn1)SCCSCCS2, the TGI (SK-MEL-5 melanoma) was over 100 µM.

With Nc1nc2ncc(SCc3ccc(C(=O)NC(CCC(=O)O)C(=O)O)cc3)cc2c(=O)[nH]1 (stereo not drawn) the TGI (SK-MEL-5 melanoma) was over 100 µM.

In the case of COC1(C)CC2N(C(=O)c3ccccc3)N=C(c3ccccc3)CC2(C)O1 (stereo not drawn), the TGI (SK-MEL-5 melanoma) is reported as over 100 µM, the TGI (LXFL 529 NSCLC) is reported as over 100 µM and the TGI (DLD-1 colon) is reported as over 100 µM. The TGI (RXF-631 renal) was over 100 µM, the TGI (XF 498 CNS) was over 100 µM and the TGI (KM20L2 colon) was over 100 µM. The TGI (DMS 114 small cell lung) was over 100 µM.

Cc1cccc(N2C(=O)C3ON(C(C(N)=O)c4ccccc4)C(c4c5ccccc5c(Cl)c5ccccc45)C3C2=O)c1C (stereo not drawn) showed a TGI (SK-MEL-5 melanoma) of 13.9 µM.

In the case of COc1ccc(C2C(Cl)C(=O)N2NC(=O)c2ccc(NC(C)=O)cc2)cc1 (stereo not drawn), the TGI (SK-MEL-5 melanoma) is reported as over 100 µM, the TGI (SNB-78 CNS) is reported as over 100 µM and the TGI (LXFL 529 NSCLC) is reported as over 100 µM. The TGI (DLD-1 colon) was over 100 µM, the TGI (XF 498 CNS) was over 100 µM and the TGI (KM20L2 colon) was over 100 µM. The TGI (M19-MEL melanoma) was over 100 µM and the TGI (DMS 273 small cell lung) was over 100 µM.

For N#Cc1c(N)[nH]c(=S)c(C#N)c1-c1cccc(Cl)c1, the TGI (SK-MEL-5 melanoma) was over 100 µM.

For Cc1cn(C2C=CC(COP(=O)(OCC3=CC(=O)c4ccccc4C3=O)N(C)CCCCCl)O2)c(=O)[nH]c1=O (stereo not drawn), the TGI (SK-MEL-5 melanoma) was 2.28 µM.

For O=C1CC2(C[C@@H]3CCCCCCCCC[C@@H](C3)C2)N1 (stereo partly drawn), the TGI (SK-MEL-5 melanoma) was 30.6 µM, the TGI (SNB-78 CNS) was 49.6 µM and the TGI (LXFL 529 NSCLC) was 29.7 µM. It also gave a TGI (HOP-18 NSCLC) of 22.6 µM, a TGI (XF 498 CNS) of 24.9 µM and a TGI (KM20L2 colon) of 31.4 µM. The TGI (DMS 114 small cell lung) was 31.6 µM, the TGI (M19-MEL melanoma) was 28.8 µM and the TGI (DMS 273 small cell lung) was 25.3 µM.

CCOC(=O)c1c(NC(=O)c2ccccc2)sc2c1CCCC2 was tested, and the TGI (SK-MEL-5 melanoma) was over 100 µM.

Cc1cc(-c2nc3ccccc3s2)ccc1NS(=O)(=O)O gave a TGI (SK-MEL-5 melanoma) of over 100 µM.
